Reference: patent US20260125346A1, “Isoquinolinone Derivatives and 4H-Quinolizinone Derivatives and Pharmaceutical Compositions Thereof for the Treatment of Disease” (BeOne Medicines I GmbH, priority 2023, published 2026)

Legend:
[1] = tested on: PI3Kα H1047R mutated cell line T-47D; experiment: Phospho-AKT (Ser473) Inhibition Assay (HTRF), T-47D; format: cell-based; settings: for IC50: Homo sapiens, T47D, T-47D, 1 hour treatment, read-out: p-AKT Inhibition assay (S473) IC50 T-47D; for Selectivity: SK-BR-3/T-47D (p-AKT): p-AKT (S473) IC50 ratio
Experimental: (§1) Cell Culture Maintenance. The T-47D (ATCC, HTB-133) cell line was obtained from the American Type Culture Collection. Cells were maintained in RPMI1640 medium (Gibco, REF #22400105) supplemented with 10% Fetal Bovine Serum (Gibco, REF #10091148). Cultures were maintained in a humidified incubator at 37° C. under 5% CO2/95% air.
(§2) Phospho-AKT Inhibition Assay. HTRF Phospho-AKT (Ser473) detection kit (Cisbio, REF #64AKSPEH) was used in phosphor-AKT inhibition assay. For compound screening, PI3Kα H1047R mutated cell line T-47D and WT cell line SK-BR-3 cells were seeded at a density of 3×10^4 cells per well in 96 well plate (Costar, REF #3599) in 95 μL of assay medium (MEM medium (Gibco, REF #12561-056) with 1×NEAA (Gibco, REF #11140-050), 1 mM sodium pyruvate (Gibco, REF #11360-070), and 1 g/ml human insulin (Topscience, REF #T8221)), overnight. Compounds dissolved in 10 mM stock solutions in DMSO were serially diluted 1:3 in DMSO to generate an 11-point dilution series and plated using an INTEGRA ASSIST PLUS pipetting robot. A 20× intermediate compound dilution plate in RPMI1640 medium (200 M starting compound concentration in 2% DMSO) was then prepared. Five μL of intermediate serially diluted compounds were added to the cell plate to final concentrations ranging from […] to 0.1 nM in 0.1% DMSO. 0.1% DMSO alone was used to establish the maximum signal and GDC0077 at final concentration of 10 μM was used as a reference compound for minimum signal. After 1 hour treatment, removed medium and added 50 μL of supplemented lysis buffer (1×) immediately. Incubated for at least 30 minutes at room temperature under shaking. Transferred 16 μL of cell lysate from the 96-well cell-culture plate to a 384-white detection plate (PerkinElmer, Optiplate 384, 6007299). Added 4 μL of premixed antibody solutions prepared in the detection buffer. Incubated 4 hours at room temperature in dark. The plates were read on PHERAstar FSX Microplate reader (BMG LABTECH, Inc.) using standard HTRF settings.
(§3) Relative IC50 values were determined using luminescence units by calculating percent inhibition with respect to the in-plate “MIN” (GDC0077 reference control) and “MAX” (DMSO) controls. The data were analyzed using a 4-parameter nonlinear logistic equation (four-parameter logistic concentration-response curve): Y=bottom+[(top−bottom)/1+(X/IC50) slope] • where Y=% inhibition, X=concentration of inhibitor, bottom=minimum value of y attained by curve-fit, top=maximum value of y attained by curve-fit and slope=steepness of curve at the IC50.

WT cell line SK-BR-3 = experiment: Phospho-AKT (Ser473) Inhibition Assay (HTRF), SK-BR-3; format: cell-based; settings: Homo sapiens; SK-BR-3, 1 hour treatment; read-out: p-AKT Inhibition assay (S473) IC50 SK-BR-3
Experimental: The SK-BR-3 (ATCC, HTB-30) cell line was obtained from the American Type Culture Collection. Cells were maintained in McCoy' 5A medium (Gibco, REF #16600108) supplemented with 10% Fetal Bovine Serum. Cultures were maintained in a humidified incubator at 37° C. under 5% CO2/95% air.
as §2, §3

[2] = target: PI3Kα (p110[H1047R]/p85) kinase (Homo sapiens, UniProt P42336, H1047R); experiment: PI3Kα (p110[H1047R]/p85) kinase ADP-Glo Assay; format: biochemical; settings: 25 uM ATP; for selectivity: WT/H1047R: ADP-Glo Assay IC50 ratio
Chain of PI3Kα (p110[H1047R]/p85) kinase (P42336 whole entry H1047R): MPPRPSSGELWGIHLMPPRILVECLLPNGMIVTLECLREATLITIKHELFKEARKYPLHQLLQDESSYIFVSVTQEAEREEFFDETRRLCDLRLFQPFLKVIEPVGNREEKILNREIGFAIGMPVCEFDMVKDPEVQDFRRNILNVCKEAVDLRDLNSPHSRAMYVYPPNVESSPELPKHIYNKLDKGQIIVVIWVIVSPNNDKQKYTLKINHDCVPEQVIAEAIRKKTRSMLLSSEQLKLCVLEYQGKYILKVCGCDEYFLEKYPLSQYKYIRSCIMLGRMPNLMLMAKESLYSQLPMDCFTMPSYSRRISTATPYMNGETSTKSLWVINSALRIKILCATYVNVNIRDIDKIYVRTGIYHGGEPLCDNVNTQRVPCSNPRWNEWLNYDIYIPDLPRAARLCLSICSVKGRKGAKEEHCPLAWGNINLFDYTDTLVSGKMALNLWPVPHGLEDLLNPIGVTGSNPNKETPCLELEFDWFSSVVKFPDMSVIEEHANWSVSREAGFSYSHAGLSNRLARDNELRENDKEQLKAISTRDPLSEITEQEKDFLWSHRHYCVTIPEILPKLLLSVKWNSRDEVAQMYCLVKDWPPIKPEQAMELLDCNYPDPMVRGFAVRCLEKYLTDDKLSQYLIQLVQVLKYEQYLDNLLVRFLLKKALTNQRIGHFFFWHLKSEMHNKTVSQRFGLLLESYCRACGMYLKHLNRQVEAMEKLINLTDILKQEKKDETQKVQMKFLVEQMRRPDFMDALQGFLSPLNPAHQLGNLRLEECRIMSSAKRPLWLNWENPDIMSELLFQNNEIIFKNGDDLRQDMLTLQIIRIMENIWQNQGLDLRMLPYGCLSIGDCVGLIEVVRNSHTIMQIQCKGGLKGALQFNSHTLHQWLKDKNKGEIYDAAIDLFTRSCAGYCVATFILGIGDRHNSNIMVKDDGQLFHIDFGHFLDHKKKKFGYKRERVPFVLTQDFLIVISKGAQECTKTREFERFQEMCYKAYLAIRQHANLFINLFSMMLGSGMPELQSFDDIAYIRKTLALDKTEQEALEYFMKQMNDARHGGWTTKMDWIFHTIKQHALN
Chain of PI3Kα (p110[H1047R]/p85) kinase (P27986 whole entry partner): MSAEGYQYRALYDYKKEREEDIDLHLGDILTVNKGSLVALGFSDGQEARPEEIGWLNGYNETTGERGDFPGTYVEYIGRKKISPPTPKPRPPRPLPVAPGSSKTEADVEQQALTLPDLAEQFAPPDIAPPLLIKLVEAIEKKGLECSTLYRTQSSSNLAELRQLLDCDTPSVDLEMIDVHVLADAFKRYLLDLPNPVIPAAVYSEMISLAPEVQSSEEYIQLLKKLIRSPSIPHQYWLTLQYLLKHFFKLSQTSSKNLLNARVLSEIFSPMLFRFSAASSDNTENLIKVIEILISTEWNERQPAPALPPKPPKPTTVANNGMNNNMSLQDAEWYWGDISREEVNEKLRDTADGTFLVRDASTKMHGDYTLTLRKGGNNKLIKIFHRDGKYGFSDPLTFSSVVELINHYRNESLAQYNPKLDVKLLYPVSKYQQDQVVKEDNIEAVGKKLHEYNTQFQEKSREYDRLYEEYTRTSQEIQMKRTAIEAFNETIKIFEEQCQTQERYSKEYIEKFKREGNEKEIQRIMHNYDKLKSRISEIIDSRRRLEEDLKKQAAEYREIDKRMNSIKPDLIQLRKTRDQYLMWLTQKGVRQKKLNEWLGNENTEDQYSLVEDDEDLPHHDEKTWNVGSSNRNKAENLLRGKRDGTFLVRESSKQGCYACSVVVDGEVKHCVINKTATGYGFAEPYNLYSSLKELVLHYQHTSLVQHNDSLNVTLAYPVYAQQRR
Experimental: PI3Kα (p110[H1047R]/p85) kinase ADP-Glo Assay. Certain compounds disclosed herein were tested for inhibition of PI3Kα (p110[H1047R]/p85) kinase in assays based on the ADP-Glo™ Kinase Assay methodology. The assays were carried out in 384-well white plates in a reaction mixture containing PI3Kα (p110[H1047R]/p85) kinase, 25 µM ATP, 5.35 µg/ml PI(4,5)P2:PS Lipid Kinase Substrate and […] compound in buffer containing 50 mM HEPES pH7.5, 50 mM NaCl, 3 mM MgCl2, 0.0025% BSA and 2 mM DTT. PI3Kα (p110[H1047R]/p85) kinase was incubated with Lipid Kinase Substrate and compound for 30 minutes at room temperature and the reaction was initiated by the addition of ATP.
After reaction at room temperature for 120 minutes, ADP-Glo™ reagents were added to terminate the kinase reaction and deplete the remaining ATP according to the manufacture's instruction (Promega Corporation). After incubation at room temperature for 1 hour, Kinase Detection Reagent (prepared by reconstituting the lyophilized Kinase Detection Substrate with Kinase Detection Buffer of the kit) was added to convert the ADP to ATP and to allow for the newly synthesized ATP to be measured using a luciferase/luciferin reaction. After incubation at room temperature for 0.5 hour, chemiluminescence signals were recorded on a PHERAstar FSX plate reader (BMG Labtech). The chemiluminescence generated in this assay correlates to the amount of ADP generated in the kinase assay, indicating kinase activity. […] The IC50 for each compound was derived from fitting the data to the four-parameter logistic equation by Dotmatics.

[3] = target: PI3Kα (p110/p85) kinase (wild type, "WT") (Homo sapiens, UniProt P42336); experiment: PI3Kα (p110/p85) kinase ADP-Glo Assay; format: biochemical; settings: 25 uM ATP
Chain of PI3Kα (p110/p85) kinase (wild type, "WT") (P42336 whole entry): as the sequence (P42336 whole entry H1047R) above, with R1047H counted along it
Chain of PI3Kα (p110/p85) kinase (wild type, "WT") (P27986 whole entry partner): as the sequence (P27986 whole entry partner) above
Experimental: PI3Kα (p110/p85) kinase ADP-Glo Assay. Certain compounds disclosed herein were tested for inhibition of PI3Kα (p110/p85) kinase (wild type, “WT”) in assays based on the ADP-Glo™ Kinase Assay methodology. The assays were carried out in 384-well white plates in a reaction mixture containing PI3Kα (p110/p85) kinase, 25 µM ATP, 5.35 µg/mL PI(4,5)P2:PS Lipid Kinase Substrate and […] compound in buffer containing 50 mM HEPES pH7.5, 50 mM NaCl, 3 mM MgCl2, 0.0025% BSA and 2 mM DTT. PI3Kα (p110/p85) kinase was incubated with Lipid Kinase Substrate and compound for 30 minutes at room temperature and the reaction was initiated by the addition of ATP. After reaction at room temperature for 120 minutes, ADP-Glo™ reagents were added to terminate the kinase reaction and deplete the remaining ATP according to the manufacture's instruction (Promega Corporation). After incubation at room temperature for 1 hour, Kinase Detection Reagent (prepared by reconstituting the lyophilized Kinase Detection Substrate with Kinase Detection Buffer of the kit) was added to convert the ADP to ATP and to allow for the newly synthesized ATP to be measured using a luciferase/luciferin reaction. After incubation at room temperature for 0.5 hour, chemiluminescence signals were recorded on a PHERAstar FSX plate reader (BMG Labtech). The chemiluminescence generated in this assay correlates to the amount of ADP generated in the kinase assay, indicating kinase activity. […] The IC50 for each compound was derived from fitting the data to the four-parameter logistic equation by Dotmatics.

[4] = tested on: PI3Kα H1047R mutated cell line T-47D cells; experiment: Cell Proliferation Assay (CellTiter-Glo), T-47D; format: cell-based; settings: Homo sapiens, T47D, 72 h; T-47D, 3 days treatment
Experimental: as §1
Cell Proliferation Assay. PI3Kα H1047R mutated cell line T-47D cells and WT cell line SK-BR-3 were seeded at a density of 3×10^3 cells per well in 96 well plate (Xinyou Biotechnology, 062096) in 95 μL of culture medium, overnight. Compounds dissolved in 10 mM stock solutions in DMSO were serially diluted 1:3 in DMSO to generate a 9-point dilution series and plated using an INTEGRA ASSIST Plus pipetting robot. A 20× intermediate compound dilution plate in RPMI1640 medium (200 M starting compound concentration in 2% DMSO) was then prepared. Five μL of intermediate serially diluted compounds were added to the cell plate to final concentrations ranging from […] to 1 nM in 0.1% DMSO. 0.1% DMSO alone was used to establish the maximum signal and medium without cells was for minimum signal. After 3 days treatment, equilibrated the plate and its contents at room temperature for approximately 30 minutes. Added 30 μL CellTiter-Glo® Reagent (Promega, REF #G7571) to each well. Then mixed contents for 5 min on plate shaker to induce cell lysis. Incubated at room temperature for 10 minutes to stabilize luminescent signal. The plates were read on PHERAstar FSX Microplate reader using standard luminescence settings.
Relative IC50 values were determined using luminescence units by calculating percent inhibition with respect to the in-plate “MIN” (medium only) and “MAX” (0.1% DMSO) controls. The data were analyzed using a 4-parameter nonlinear logistic equation (four-parameter logistic concentration-response curve): Y=bottom+[(top−bottom)/1+(X/IC50) slope] • where Y=% inhibition, X=concentration of inhibitor, bottom=minimum value of y attained by curve-fit, top=maximum value of y attained by curve-fit and slope=steepness of curve at the IC50.

Row | IC50 [1] [µM] | IC50 (WT cell line SK-BR-3) [µM] | IC50 [2] [µM] | selectivity: WT/H1047R [2] | IC50 [3] [µM] | IC50 [4] [µM] | Compound | Selectivity: SK-BR-3/T-47D (p-AKT) [1]
1 | 0.298 |  | 0.971 | 73.8 | 71.6 | 3.53 | Cc1cc(C(C)Nc2ccccc2C(=O)O)c2cc(C(=O)Nc3ccccc3)n(C)c(=O)c2c1 (stereo not drawn) [Example 42, 2-((1-(2,7-dimethyl-1-oxo-3-(phenylcarbamoyl)-1,2-dihydroisoquinolin-5-yl)ethyl)amino)benzoic acid] | 
2 | > 10 | > 10 | 1.1 | 24.3 | 26.8 |  | Cc1cc(C(C)Nc2ccccc2C(=O)O)c2cc(-c3cnc(O)nc3)n(C)c(=O)c2c1 (stereo not drawn) [Example 85, 2-((1-(3-(2-hydroxypyrimidin-5-yl)-2,7-dimethyl-1-oxo-1,2-dihydroisoquinolin-5-yl)ethyl)amino)benzoic acid] | 
3 | 6.75 | > 10 | 0.485 | 114.5 | 55.5 |  | Cc1cc(C(C)Nc2c(C(=O)O)nn3c2CCC3)c2cc(-c3ccccc3)n(C)c(=O)c2c1 (stereo not drawn) [Example 83, 3-((1-(2,7-dimethyl-1-oxo-3-phenyl-1,2-dihydroisoquinolin-5-yl)ethyl)amino)-5,6-dihydro-4H-pyrrolo[1,2-b]pyrazole-2-carboxylic acid] | >1.48

Further lines, the compound ahead of its results:

Row | Compound | IC50 [1] [µM] | IC50 (WT cell line SK-BR-3) [µM] | IC50 [2] [µM] | selectivity: WT/H1047R [2] | IC50 [3] [µM] | IC50 [4] [µM] | Selectivity: SK-BR-3/T-47D (p-AKT) [1]
4 | Cc1cc([C@H](C)Nc2ccccc2C(=O)O)c2cc(-c3ccc(-c4cnn(C)c4)cc3)n(C)c(=O)c2c1 [Example 41, (S)-2-((1-(2,7-dimethyl-3-(4-(1-methyl-1H-pyrazol-4-yl)phenyl)-1-oxo-1,2-dihydroisoquinolin-5-yl)ethyl)amino)benzoic acid] | > 10 | 3.23 | 7.18 | 8.5 | 61 |  | 
5 | Cc1cc(C(C)Nc2ccccc2C(=O)O)c2cc(-c3ccccc3)[nH]c(=O)c2c1 (stereo not drawn) [Example 26, 2-((1-(7-methyl-1-oxo-3-phenyl-1,2-dihydroisoquinolin-5-yl)ethyl)amino)benzoic acid] | 0.05 | > 10 | 0.158 | 40 | 6.25 |  | >198
6 | CC#Cc1cc2c(C(C)Nc3ccccc3C(=O)O)cc(C)cc2c(=O)n1C (stereo not drawn) [Example 27, 2-((1-(2,7-dimethyl-1-oxo-3-(prop-1-yn-1-yl)-1,2-dihydroisoquinolin-5-yl)ethyl)amino)benzoic acid] | 0.245 | > 10 | 0.762 | 79 | 60.2 |  | >21
7 | Cc1cc(C(C)Nc2ccccc2C(=O)O)c2cc(C#CC3CCCCC3)n(C)c(=O)c2c1 (stereo not drawn) [Example 28, 2-((1-(3-(cyclohexylethynyl)-2,7-dimethyl-1-oxo-1,2-dihydroisoquinolin-5-yl)ethyl)amino)benzoic acid] | 0.472 | 6.43 | 0.505 | >198 | > 100 |  | 17
8 | Cc1cc(C(C)Nc2ccccc2C(=O)O)c2cc(-c3cnn(-c4cccc(C#N)c4)c3)n(C)c(=O)c2c1 (stereo not drawn) [Example 29, 2-((1-(3-(1-(3-cyanophenyl)-1H-pyrazol-4-yl)-2,7-dimethyl-1-oxo-1,2-dihydroisoquinolin-5-yl)ethyl)amino)benzoic acid] | 0.107 | 2.7 | 0.26 | 15 | 3.8 |  | 25
